Data from patent US11591323B2, “Muscarinic agonists as non-steroidal and non-opioid analgesics and methods of use thereof” (Barry University, priority 2019, dated 2023).
Where two headings read alike, the source gives them in different places.

Columns and labels:
M2 muscarinic receptor = biological target: T1, M2 muscarinic receptor (Homo sapiens, UniProt P08172); test: accumulation of cAMP at PTX-treated CHO cells expressing M2; assay type: cell-based; design: host or cells: CHO cells, stably transfected; conditions: for change in accumulation of cAMP: PTX-treated M2 CHO cells, forskolin-stimulated and basal, in words
T1 sequence (P08172 1-466): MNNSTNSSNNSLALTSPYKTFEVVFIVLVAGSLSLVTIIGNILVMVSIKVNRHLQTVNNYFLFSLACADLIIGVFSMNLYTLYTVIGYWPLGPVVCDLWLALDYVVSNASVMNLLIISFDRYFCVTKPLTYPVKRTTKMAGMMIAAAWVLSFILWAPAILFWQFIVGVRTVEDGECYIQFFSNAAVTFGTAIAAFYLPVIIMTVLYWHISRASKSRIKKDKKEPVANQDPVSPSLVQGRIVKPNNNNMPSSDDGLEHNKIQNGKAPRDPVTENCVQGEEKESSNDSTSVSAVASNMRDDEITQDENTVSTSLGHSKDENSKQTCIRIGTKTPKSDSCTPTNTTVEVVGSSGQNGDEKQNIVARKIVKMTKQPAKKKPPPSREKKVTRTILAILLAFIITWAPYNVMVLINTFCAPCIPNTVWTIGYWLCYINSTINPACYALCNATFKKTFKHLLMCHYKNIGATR
Procedure: (§1) To exclude the possibility that activation of the non-preferential Gs pathway was obscured by activation of the preferential Gi/o pathway, accumulation of cAMP was measured in CHO cells expressing M2 or M4 receptors where Gi/o G-proteins were inactivated by pertussis toxin (PTX) treatment (FIG. 4).
Cell culture and membrane preparation: Chinese hamster ovary (CHO) cells stably transfected with the genes of individual human variants of muscarinic receptors were purchased from Missouri S&T cDNA Resource Center (Rolla, Mo., USA). Fresh primary cell culture of smooth muscle cells (SMC) from rat aorta prepared as previously described was kindly provided by Dr. Lucie Bačáková. Primary culture of SMCs was grown to confluency in 75 cm^2 flasks in Dulbecco's modified Eagle's medium supplemented with 10% fetal bovine serum. Up to 6-times, 2 million of cells were sub-cultured. […] Cells were grown to confluency in 75 cm^2 flasks in Dulbecco's modified Eagle's medium supplemented with 10% fetal bovine serum and 2 million of cells were subcultured in 100 mm Petri dishes. Medium was supplemented with 5 mM butyrate for the last 24 hours of cultivation to increase receptor expression. When needed, cells were cultivated with pertussis toxin at a final concentration of 25 ng/ml for the 24 hours. Cells were detached by mild trypsinization on day 5 after subculture. Detached cells were washed twice in 50 ml of phosphate-buffered saline and 3 min centrifugation at 250×g. […]
Measurements of the production of cAMP and inositol phosphates: Levels of second messengers cAMP and inositol phosphates were determined in radiochemical chromatography assays as described previously. […] Samples were applied to alumina columns (1.5 g of alumina per column), washed with 2 ml ammonium acetate (pH=7.0) and eluted from columns with 4 ml ammonium acetate and measured by liquid scintillation spectrometry. […] After separation of water and organic phases, 0.6 ml of water phase was applied to Dowex columns (1.5 g of Dowex per column), washed by 20 ml of 60 mM ammonium formate/5 mM sodium borate buffer and eluted from columns with 4 ml of 1M ammonium formate/0.1 formic acid buffer and measured by liquid scintillation spectrometry.
as §1, with “[…]” for “Gs”, “11). […]” for “4).”

M3 muscarinic receptor = M3 muscarinic receptor (Homo sapiens, UniProt P20309); test: stimulation of cAMP, M3 CHO cells (M3Gs); assay type: cell-based; design: host or cells: CHO cells, stably transfected
Chain of M3 muscarinic receptor (P20309 whole entry): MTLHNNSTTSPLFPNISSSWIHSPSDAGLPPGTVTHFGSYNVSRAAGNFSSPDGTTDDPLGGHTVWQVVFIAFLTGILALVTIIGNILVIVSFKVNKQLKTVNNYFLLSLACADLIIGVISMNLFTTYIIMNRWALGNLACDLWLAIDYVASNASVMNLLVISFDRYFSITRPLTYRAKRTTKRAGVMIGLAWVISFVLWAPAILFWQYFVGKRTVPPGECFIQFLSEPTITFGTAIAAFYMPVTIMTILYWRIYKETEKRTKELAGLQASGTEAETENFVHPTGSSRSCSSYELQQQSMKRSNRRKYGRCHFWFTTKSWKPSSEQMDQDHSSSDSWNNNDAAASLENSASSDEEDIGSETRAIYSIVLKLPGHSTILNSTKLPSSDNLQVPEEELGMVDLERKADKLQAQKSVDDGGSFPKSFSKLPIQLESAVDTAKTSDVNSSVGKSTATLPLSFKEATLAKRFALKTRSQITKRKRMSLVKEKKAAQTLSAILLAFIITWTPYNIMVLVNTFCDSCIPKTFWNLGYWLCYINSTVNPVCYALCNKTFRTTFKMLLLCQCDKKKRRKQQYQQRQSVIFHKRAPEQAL
Procedure: Since activation of phospholipase C (PLC) via M2 and M4 receptors is weak, cells were transferred with G15 G-protein to facilitate coupling.
To determine level of cAMP, cells in suspension were pre-incubated for 1 h with 0.4 μM [^3H]adenine, washed, and incubated for 10 min in the presence of isobutylmethylxanthine and 10 μM forskolin. […] Incubation was ended by addition of 0.2 ml of 2.5 M HCl to the samples. Samples were applied to alumina columns (1.5 g of alumina per column), washed with 2 ml ammonium acetate (pH=7.0) and eluted from columns with 4 ml ammonium acetate and measured by liquid scintillation spectrometry. […] The incubation was stopped by addition of 0.5 ml of chloroform methanol HCl mixture (2:1:0.1). After separation of water and organic phases, 0.6 ml of water phase was applied to Dowex columns (1.5 g of Dowex per column), washed by 20 ml of 60 mM ammonium formate/5 mM sodium borate buffer and eluted from columns with 4 ml of 1M ammonium formate/0.1 formic acid buffer and measured by liquid scintillation spectrometry.
Measurements of the production of cAMP and inositol phosphates: Levels of second messengers cAMP and inositol phosphates were determined in radiochemical chromatography assays as described previously. To determine level of cAMP, cells in suspension were pre-incubated for 1 h with 0.4 μM [^3H]adenine, washed, and incubated for 10 min in the presence of isobutylmethylxanthine and 10 μM forskolin. […] Incubation was ended by addition of 0.2 ml of 2.5 M HCl to the samples. Samples were applied to alumina columns (1.5 g of alumina per column), washed with 2 ml ammonium acetate (pH=7.0) and eluted from columns with 4 ml ammonium acetate and measured by liquid scintillation spectrometry. […] For this purpose, new CHO cell lines stably expressing promiscuous G15 G-protein and M2 or M4 receptor were generated by transfection with pCMV/hygro vector and hygromycin selection. To determine the rate of formation of inositol phosphates IPX, suspended cells were pre-incubated with 0.1 μM [^3H]myo-inositol for 60 min, washed, and incubated with 10 mM LiCl for 15 min. […] The incubation was stopped by addition of 0.5 ml of chloroform methanol HCl mixture (2:1:0.1). After separation of water and organic phases, 0.6 ml of water phase was applied to Dowex columns (1.5 g of Dowex per column), washed by 20 ml of 60 mM ammonium formate/5 mM sodium borate buffer and eluted from columns with 4 ml of 1M ammonium formate/0.1 formic acid buffer and measured by liquid scintillation spectrometry.
For bi-phasic response, curves were inhibitory and stimulatory phase were fitted separately. Operational Model of Functional Agonism
[formula] where y is functional response at concentration of tested compound x, EMAX is maximal response of the system, KA is equilibrium dissociation constant and nH is slope factor. Eq. 5 was fitted to data from functional experiments. Eq. 5 was fitted to data by the two-step procedure described earlier. […] In the second step, Eq. 5 with EMAX fixed to the value determined in the first step was fitted to individual experimental data sets. Relative Intrinsic Activity
Muscarinic receptors are also able to stimulate non-preferential signalling pathways.

[1] = M3Gs (↑cAMP), Table 8, relative to carbachol

Structure (SMILES): C1=CCN(Cc2cccs2)CC1.Cl [Compound 6A, 1-[(thiophen-2-yl)methyl]-1,2,3,6-tetrahydropyridin-1-ium chloride]
- change in accumulation of cAMP (M2 muscarinic receptor): did not change cAMP levels
- RAi (M3 muscarinic receptor; [1]): 0

Structure (SMILES): C[N+](C)(C)CCOC(N)=O [carbachol, reference compound]
- EC50 in PTX treated cells versus non-treated cells (M2 muscarinic receptor; M2): the same
- change in accumulation of cAMP (M2 muscarinic receptor): about two-fold increase

Structure (SMILES): C[N+]1(Cc2cccs2)CC=CCC1.[I-] (stereo not drawn) [Compound 7A, 1-methyl-1-[(thiophen-2-yl)methyl]-1,2,3,6-tetrahydropyridin-1-ium iodide]
- change in accumulation of cAMP (M2 muscarinic receptor): did not change cAMP levels
- RAi (M3 muscarinic receptor; [1]): 0

Structure (SMILES): O=C1CCCN1CC#CCN1CCCC1 [oxotremorine, reference compound]
- EC50 (M3 muscarinic receptor): 2.63 µM
- E′MAX (M3 muscarinic receptor): 1.9 ± 0.1 fold increase
- Kd (M3 muscarinic receptor): 3.98 µM
- RAi (M3 muscarinic receptor): 4.23 ± 0.28
- Δlog(τ/KA) (M3 muscarinic receptor): −0.63 ± 0.06
- τ (M3 muscarinic receptor): 0.48 ± 0.05
